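Assay format: 96-well plates, 48-hour exposure. GI50 marks 50% less growth.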 Calls of active or inactive are those of the source. No stated cut-off is given here; in the data, active = GI50 up to about 1.1 µM and inactive = higher.
Tests used:
Test in all cases: DTP human tumour cell line panel, 48 h
786-0 = system: 786-0
A498 = system: A498
A549 = system: A549
ACHN = system: ACHN
BT-549 = system: BT-549
CAKI-1 = system: CAKI-1
CCRF-CEM = system: CCRF-CEM
COLO 205 = system: COLO 205
DU-145 = system: DU-145
EKVX = system: EKVX
HCC 2998 = system: HCC 2998
HCT-116 = system: HCT-116
HCT-15 = system: HCT-15
HL-60 = system: HL-60
HOP-62 = system: HOP-62
HOP-92 = system: HOP-92
HT-29 = system: HT-29
IGROV-1 = system: IGROV-1
K562 = system: K562
KM12 = system: KM12
LOX IMVI = system: LOX IMVI
M14 = system: M14
MCF7 = system: MCF7
MDA-MB-231 = system: MDA-MB-231
MDA-MB-435 = system: MDA-MB-435
MDA-N = system: MDA-N
MOLT-4 = system: MOLT-4
Malme-3M = system: Malme-3M
NCI-H226 = system: NCI-H226
NCI-H23 = system: NCI-H23
NCI-H460 = system: NCI-H460
NCI-H522 = system: NCI-H522
OVCAR-3 = system: OVCAR-3
OVCAR-4 = system: OVCAR-4
OVCAR-5 = system: OVCAR-5
OVCAR-8 = system: OVCAR-8
PC-3 = system: PC-3
RXF 393 = system: RXF 393
SF-268 = system: SF-268
SF-295 = system: SF-295
SF-539 = system: SF-539
SK-MEL-28 = system: SK-MEL-28
SK-OV-3 = system: SK-OV-3
SN12C = system: SN12C
SNB-19 = system: SNB-19
SNB-75 = system: SNB-75
SR = system: SR
SW-620 = system: SW-620
T47D = system: T47D
TK-10 = system: TK-10
U-251 = system: U-251
UACC-257 = system: UACC-257
UACC-62 = system: UACC-62
UO-31 = system: UO-31

For `Cc1ccc2c(c1)CC1(C2=O)[C@H](c2ccccc2)C2C(=O)c3ccc(C)cc3C2[C@H]1c1ccccc1` (some centres undefined), the GI50 (786-0) was > 100 µM (inactive), the GI50 (A498) was > 100 µM (inactive) and the GI50 (A549) was > 100 µM (inactive). The GI50 (ACHN) was > 100 µM (inactive), the GI50 (BT-549) was > 100 µM (inactive) and the GI50 (CAKI-1) was > 100 µM (inactive). For the same molecule, the GI50 (CCRF-CEM) was > 100 µM (inactive), the GI50 (COLO 205) was > 100 µM (inactive) and the GI50 (DU-145) was > 100 µM (inactive). The GI50 (EKVX) was > 100 µM (inactive), the GI50 (HCC 2998) was 43 µM (inactive) and the GI50 (HCT-116) was 24.9 µM (inactive). For the same molecule, the GI50 (HCT-15) was > 100 µM, the GI50 (HL-60) was 43.1 µM (inactive) and the GI50 (HOP-62) was > 100 µM (inactive). The GI50 (HOP-92) was > 100 µM (inactive), the GI50 (HT-29) was > 100 µM (inactive) and the GI50 (IGROV-1) was > 100 µM (inactive). For the same molecule, the GI50 (K562) was 30.7 µM (inactive), the GI50 (KM12) was > 100 µM (inactive) and the GI50 (LOX IMVI) was > 100 µM (inactive). The GI50 (M14) was > 100 µM (inactive), the GI50 (MCF7) was 69.8 µM (inactive) and the GI50 (MDA-MB-231) was > 100 µM (inactive). For the same molecule, the GI50 (MDA-MB-435) was > 100 µM (inactive), the GI50 (MDA-N) was > 100 µM (inactive) and the GI50 (MOLT-4) was 43.8 µM (inactive). For the same molecule, the GI50 (Malme-3M) was > 100 µM (inactive), the GI50 (NCI-H226) was > 100 µM (inactive) and the GI50 (NCI-H23) was > 100 µM (inactive). The GI50 (NCI-H460) was > 100 µM (inactive), the GI50 (NCI-H522) was > 100 µM (inactive) and the GI50 (OVCAR-3) was > 100 µM (inactive). The GI50 (OVCAR-4) was > 100 µM (inactive), the GI50 (OVCAR-5) was > 100 µM (inactive) and the GI50 (OVCAR-8) was > 100 µM (inactive). For the same molecule, the GI50 (PC-3) was 37.8 µM (inactive), the GI50 (RXF 393) was > 100 µM (inactive) and the GI50 (SF-268) was > 100 µM (inactive). The GI50 (SF-295) was > 100 µM (inactive), the GI50 (SF-539) was > 100 µM (inactive) and the GI50 (SK-MEL-28) was > 100 µM (inactive). The GI50 (SK-OV-3) was > 100 µM (inactive), the GI50 (SN12C) was > 100 µM (inactive) and the GI50 (SNB-19) was > 100 µM (inactive). The GI50 (SNB-75) was > 100 µM (inactive), the GI50 (SR) was 36.9 µM (inactive) and the GI50 (SW-620) was > 100 µM (inactive). The GI50 (T47D) was > 100 µM (inactive), the GI50 (TK-10) was > 100 µM (inactive) and the GI50 (U-251) was > 100 µM (inactive). For the same molecule, the GI50 (UACC-257) was > 100 µM (inactive), the GI50 (UACC-62) was > 100 µM (inactive) and the GI50 (UO-31) was > 100 µM (inactive).

— ChEMBL document CHEMBL1201862, “PubChem BioAssay data set” (2004)
